Laboratory results: patent publication US5571820A, “Heterocyclic compound” (Taisho Pharmaceutical Co., Ltd., priority 1992, dated 1996)

Assay: Mouse single administration (acute toxicity)
Type: in vivo
Details: single oral administration
Description: Toxicity of the compound represented by formula (1) which is the effective ingredient of the pharmaceutical composition of the present invention was examined in terms of toxicity by mouse single administration (acute toxicity).

CC(C)n1c(=O)c(C(=O)N[C@H]2C[C@H]3CC[C@@H](C2)N3C)cc2ccccc21 [Compound 1, endo-N-(8-methyl-8-azabicyclo[3.2.1]oct-3-yl)-1-isopropyl-2(1H)-quinolone-3-carboxamide]
minimum lethal dose: more than 125 mg/kg
